Measurements from patent US6004960A, “Pyridazinones as inhibitors of cyclooxygenase-2” (Merck Frosst Canada, Inc., priority 1998, dated 1999).

Tests used:
COX-2 [1] = biological target: T1, COX-2 (Homo sapiens, UniProt P35354); assay: Human whole blood assay, COX-2 (LPS-induced PGE2 production); assay type: cell-based; parameters: incubation of human whole blood with LPS, which induces COX-2; from tissue; host or cells: fresh human whole blood (volunteers), incubated with LPS; details: LPS-induced PGE2, 24 hours at 37° C, read-out: COX-2 (IC50 μM) HWB
T1 sequence (P35354 18-604): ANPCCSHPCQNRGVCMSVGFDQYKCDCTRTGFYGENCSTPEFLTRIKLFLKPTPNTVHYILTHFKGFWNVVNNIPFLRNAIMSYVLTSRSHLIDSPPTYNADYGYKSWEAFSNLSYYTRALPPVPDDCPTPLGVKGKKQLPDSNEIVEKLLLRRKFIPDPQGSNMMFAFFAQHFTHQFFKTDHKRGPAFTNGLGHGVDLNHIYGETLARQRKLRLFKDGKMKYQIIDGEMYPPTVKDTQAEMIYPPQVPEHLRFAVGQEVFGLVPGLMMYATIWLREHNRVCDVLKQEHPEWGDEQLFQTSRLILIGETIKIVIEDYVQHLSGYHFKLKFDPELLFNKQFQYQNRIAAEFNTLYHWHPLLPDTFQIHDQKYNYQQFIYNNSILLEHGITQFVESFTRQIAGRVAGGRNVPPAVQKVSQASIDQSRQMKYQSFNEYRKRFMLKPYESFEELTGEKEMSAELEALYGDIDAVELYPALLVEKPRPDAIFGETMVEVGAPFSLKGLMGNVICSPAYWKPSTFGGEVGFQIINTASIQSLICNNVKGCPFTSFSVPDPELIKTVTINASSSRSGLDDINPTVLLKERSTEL
From the text: As well, platelets in whole blood contain a large amount of the COX-1 enzyme. Immediately following blood clotting, platelets are activated through a thrombin-mediated mechanism. This reaction results in the production of thromboxane B2 (TxB2) via activation of COX-1. Thus, the effect of test compounds on TxB2 levels following blood clotting can be examined and used as an index for COX-1 activity. Therefore, the degree of selectivity by the test compound can be determined by measuring the levels of PGE2 after LPS induction (COX-2) and […] following blood clotting (COX-1) in the same assay.
A. COX-2 (LPS-induced PGE2 production)
Fresh blood is collected in heparinized tubes by venipuncture from both male and female volunteers. The subjects have no apparent inflammatory conditions and have not taken any NSAIDs for at least 7 days prior to blood collection. Plasma is immediately obtained from a 2mL blood aliquot to use as blank (basal levels of PGE2). The remaining blood is incubated with LPS (100 μg/ml final concentration, Sigma Chem, #L-2630 from E. coli; diluted in 0.1% BSA (Phosphate buffered saline) for 5 minutes at room temperature. Five hundred μL aliquots of blood are incubated with either 2μL of vehicle (DMSO) or 2 μL of a test compound at final concentrations varying from 10nM to 30 μM for 24 hours at 37° C. At the end of the incubation, the blood is centrifuged at 12,000×g for 5 minutes to obtain plasma. A 100 μL aliquot of plasma is mixed with 400 μL of methanol for protein precipitation. The supernatant is obtained and is assayed for PGE2 using a radioimmunoassay kit (Amersham, RPA#530) after conversion of PGE2 to its methyl oximate derivative according to the manufacturer's procedure. […]

COX-2 [2] = biological target: T1, COX-2; assay: Whole cell assay for COX-2 using CHO transfected cell line (CHO [hCOX-2]), PGE2; assay type: cell-based; parameters: expressed in transfected cells; host or cells: CHO (Chinese hamster ovary), stably transfected with pCDNAIII vector; CHO [hCOX-2]; details: CHO [hCOX-2] cells, 10 μM AA
Method: Chinese hamster ovary (CHO) cell lines which have been stably transfected with an eukaryotic expression vector pCDNAIII containing either the human COX-1 or COX-2 cDNA's are used for the assay. These cell lines are referred to as CHO [hCOX-1] and CHO [hCOX-2], respectively. […] Drugs to be tested are dissolved in DMSO to 66.7-fold the highest test drug concentration. […] Cells (0.3×10^6 cells in 200 p) are preincubated with 3 AIl of the test drug or DMSO vehicle for 15 min at 37° C. […] Cells are then challenged in the presence or absence of drug with the AA/HBSS solution to yield a final concentration of 0.5 μM AA in the CHOhCOX-1] assay and a final concentration of 10 μM AA in the CHO [hCOX-2] assay. […] The samples are centrifuged at 300×g at 4° C. for 10 min, and an aliquot of the clarified supernatant is appropriately diluted for the determination of PGE2 levels using an enzyme-liked immunoassay for PGE2 (Correlate PGE2 enzyme immunoassay kit, Assay Designs, Inc.). Cyclooxygenase activity in the absence of test compounds is determined as the difference in PGE2 levels of cells challenged with arachidonic acid versus the PGE2 levels in cells mock-challenged with ethanol vehicle. Inhibition of PGE2 synthesis by test compounds is calculated as a percentage of the activity in the presence of drug versus the activity in the positive control samples.
In the assay, inhibition is determined by measuring the amount of prostaglandin E2 (PGE2) synthesized in the presence of arachidonic acid, cyclooxygenase-I or cyclooxygenase-2 and a putative inhibitor.

IC50 (COX-2 [1]): 1.5 µM
IC50 (COX-2 [2]): 0.13 µM
Compound: CS(=O)(=O)c1ccc(-c2cnn(Cc3ccccc3)c(=O)c2-c2cccnc2)cc1 [Example 28, 2-Benzyl-5-(4-methylsulfonyl)phenyl-4-(3-pyridyl)-2H-pyridazin-3-one]
